Results on 69 compounds are retold here after PubChem BioAssay AID651801 (Broad Institute, 2012).

Calls of active or inactive are those of the source.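 How the source made its calls: active means signal falling with dose and AC50 at most twice the top valid tested dose; inconclusive means flat fit with inhibition of 30 to 70%, or poor fit; inactive means the rest, plus effects in the rising direction.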 Where only a bound is given, the exact number is not on record here.

The test concerns the target Kelch-like ECH-associated protein 1 (Homo sapiens) (UniProt Q14145). Description: disruptors of Keap1 Kelch-Nrf2 peptide binding – biochemical, fluorescence polarization, dry powder, set 2, dose response (AID 651801). As to conditions: Keap1 Kelch/FITC-Nrf2 peptide fluorescence polarization. (In fluorescence polarisation assays a small probe gives low polarisation when free and higher when bound to something large.)

Chain of Kelch-like ECH-associated protein 1 (Homo sapiens) (Q14145 whole entry, looked up): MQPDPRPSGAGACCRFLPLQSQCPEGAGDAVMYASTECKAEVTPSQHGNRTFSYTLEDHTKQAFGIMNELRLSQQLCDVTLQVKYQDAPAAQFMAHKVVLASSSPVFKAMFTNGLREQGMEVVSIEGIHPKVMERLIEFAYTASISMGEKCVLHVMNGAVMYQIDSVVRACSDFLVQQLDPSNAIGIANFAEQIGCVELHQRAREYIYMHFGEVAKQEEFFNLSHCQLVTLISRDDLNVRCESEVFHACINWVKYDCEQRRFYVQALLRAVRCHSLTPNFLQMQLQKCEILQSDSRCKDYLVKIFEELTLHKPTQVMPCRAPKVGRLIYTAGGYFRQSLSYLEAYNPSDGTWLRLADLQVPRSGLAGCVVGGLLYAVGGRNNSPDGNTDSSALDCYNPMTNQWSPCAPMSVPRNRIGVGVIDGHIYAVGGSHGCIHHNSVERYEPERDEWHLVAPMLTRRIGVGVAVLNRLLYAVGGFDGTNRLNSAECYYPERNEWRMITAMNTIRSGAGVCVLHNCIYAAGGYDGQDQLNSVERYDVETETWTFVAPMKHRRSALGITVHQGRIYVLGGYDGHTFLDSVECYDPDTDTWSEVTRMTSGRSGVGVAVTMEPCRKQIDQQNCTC

For the compound `C=CC(=O)NC[C@@H]1c2ccccc2CCN1C(=O)[C@@H]1CCCC[C@@H]1C(=O)O`, under “at 50 µM (top of the series)”, the “activity change, negative = inhibition” value was “inactive”.
Same read-out and setting: for `O=C(NC[C@@H]1c2ccccc2CCN1C(=O)[C@@H]1CCCC[C@@H]1C(=O)O)c1ccccc1CO` the value was “inactive”; for `O=C(O)CC(=O)N1CCc2ccccc2C1CN1C(=O)c2ccccc2C1=O` (stereo unspecified), “inactive”.
For the compound `O=C(O)C1CCCCC1C(=O)N1CCc2ccccc2[C@H]1C(=O)NC12CC3CC(CC(C3)C1)C2` (stereo partly specified), the “activity change, negative = inhibition” value (at 50 µM (top of the series)) was “inactive”.
Regarding `O=C(O)[C@H]1C2C=CC(C2)[C@H]1C(=O)N1CCc2ccccc2C1CN1C(=O)c2ccccc2C1=O` (stereo partly specified), the AC50 is > 100 µM (inactive).
With `O=C(O)c1ccccc1C(=O)N1CCc2ccccc2C1CN1C(=O)c2ccccc2C1=O` (stereo unspecified), the “activity change, negative = inhibition” value (at 50 µM (top of the series)) was “inactive”.
Consider `C[C@H](NC(=O)C1CCCC[C@H]1C(=O)O)c1ccccc1` (mixture of isomers), for which the “activity change, negative = inhibition” value (at 50 µM (top of the series)) is “inactive”.
On the same count and under the same terms, for `O=C(O)[C@H]1CCCC[C@H]1C(=O)N1CCc2ccccc2[C@H]1CNS(=O)(=O)c1ccccc1` the value was “inactive”; for `Cc1cc(C)c(S(=O)(=O)Nc2ncnc3ccccc23)c(C)c1`, “inactive”.
Still for that read-out and setting: then `O=C(O)C1CCCCC1C(=O)NCC1c2ccccc2CCN1C(=O)Cc1ccccc1` (stereo unspecified), with “inactive”.
Take `O=C1c2ccccc2C(=O)N1CC1c2ccccc2CCN1C(=O)Cc1ccccc1` (stereo unspecified): the “activity change, negative = inhibition” value (at 12 µM (top of the series)) was “inactive”.
On to `O=C(O)[C@H]1CCCC[C@H]1C(=O)N1CCc2ccccc2C1CCN1C(=O)c2ccccc2C1=O` (stereo partly specified), for which, under “at 50 µM (top of the series)”, the “activity change, negative = inhibition” value is “inactive”.
With `COC(=O)[C@@H]1CCCC[C@@H]1C(=O)N1CCc2ccccc2[C@H]1CN1C(=O)c2ccccc2C1=O`, for the setting “at 50 µM (top of the series)”, the “activity change, negative = inhibition” value is “inactive”.
On the same count and under the same terms, then `COC(=O)[C@H]1CCCC[C@H]1C(=O)N1CCc2ccccc2[C@H]1CN1C(=O)c2ccccc2C1=O`, with “inactive”; and `Cc1ccc(S(=O)(=O)NNc2nc(N3CC(O)CC3C(=O)O)nc3ccccc23)cc1` (stereo unspecified), with “inactive”.
Still for that read-out and setting: for `O=C(O)[C@H]1CCCC[C@H]1C(=O)N1CCc2ccccc2[C@H]1CNc1nc(Cl)nc2ccccc12` the value was “inactive”; for `CCOC(=O)C(C(=O)OCC)c1cc(CNS(=O)(=O)c2ccc(C)cc2C)c2ccccc2n1`, “inactive”; for `O=C1c2ccccc2C(=O)N1CC1=NCCc2ccccc21`, “inactive”.
The same measure, in the same setting: then `CCOC(=O)C(C(=O)OCC)c1cc(CN2C(=O)c3ccccc3C2=O)c2ccccc2n1`, with “inactive”.
For `Cc1cc(C)c(S(=O)(=O)Nc2cc(C(C(=O)OCc3ccccc3)C(=O)OCc3ccccc3)c(O)c3ccccc23)c(C)c1`, for the setting “at 50 µM (top of the series)”, the “activity change, negative = inhibition” value is “inactive”.
Same read-out and setting: then `COC(=O)[C@@H]1CCCC[C@@H]1C(=O)N1CCc2ccccc2[C@@H]1CN1C(=O)c2ccccc2C1=O`, with “inactive”; and `O=C(O)C1CCCCC1C(=O)N1CCc2ccccc2C1c1ccccc1` (stereo unspecified), with “inactive”; and `O=C(O)[C@@H]1CCCN1C(=O)N1CCc2ccccc2[C@H]1CN1C(=O)c2ccccc2C1=O`, with “inactive”.
Same read-out and setting: for `O=S(=O)(Nc1nc(NCC2CCCCC2)nc2ccccc12)c1ccccc1` the value was “inactive”; for `O=C(O)[C@H]1CCCC[C@H]1C(=O)NC(CN1C(=O)c2ccccc2C1=O)c1ccccc1` (stereo partly specified), “inactive”.
In the case of `O=C(NC[C@@H]1c2ccccc2CCN1C(=O)[C@@H]1CCCC[C@@H]1C(=O)O)c1ccc(CN2CCOCC2)cc1`, the AC50 was > 100 µM (inactive).
On to `O=C1c2ccccc2C(=O)N1C[C@@H]1c2ccccc2CCN1C(=O)OCc1ccccc1`, for which the “activity change, negative = inhibition” value (at 50 µM (top of the series)) was “inactive”.
Consider `CCOC(=O)C(C(=O)OCC)c1nc(NS(=O)(=O)c2c(C)cc(C)cc2C)c2ccccc2n1`, for which the “activity change, negative = inhibition” value (at 50 µM (top of the series)) was “inactive”.
With `O=C(O)C1CCCCC1C(=O)N1CCc2ccccc2C1CN1C(=O)[C@H]2CCCC[C@H]2C1=O` (stereo partly specified), the AC50 was > 100 µM (inactive).
Take `COc1ccccc1CCNC(=O)[C@@H]1c2ccccc2CCN1C(=O)C1CCCCC1C(=O)O` (stereo partly specified): the “activity change, negative = inhibition” value (at 50 µM (top of the series)) is “inactive”.
As to `Cc1ccccc1S(=O)(=O)Nc1cc(C(C(=O)OC(C)C)C(=O)C(F)(F)F)c(O)c2ccccc12` (stereo unspecified), the AC50 was 3.56 µM.
As for `COC(=O)C1CCCCC1C(=O)N1CCc2ccccc2C1CN1C(=O)c2ccccc2C1=O` (stereo unspecified), the “activity change, negative = inhibition” value (at 50 µM (top of the series)) is “inactive”.
Same read-out and setting: then `O=C1c2ccccc2C(=O)N1C[C@H]1NCCc2ccccc21`, with “inactive”.
Consider `O=C(O)Cc1ccccc1C(=O)N1CCc2ccccc2[C@H]1CN1C(=O)c2ccccc2C1=O`, for which the AC50 was 23.6 µM.
Take `CC(C)CNc1nc(NS(=O)(=O)c2ccccc2)c2ccccc2n1`: the “activity change, negative = inhibition” value (at 50 µM (top of the series)) was “inactive”.
In the case of `O=C(NC[C@@H]1c2ccccc2CCN1C(=O)[C@@H]1CCCC[C@@H]1C(=O)O)c1ccc(CCl)cc1`, the “activity change, negative = inhibition” value (at 50 µM (top of the series)) was “inactive”.
The same measure, in the same setting: then `O=C(Cc1ccccc1)NC[C@@H]1c2ccccc2CCN1C(=O)[C@@H]1CCCC[C@@H]1C(=O)O`, with “inactive”.
For `O=C(NC[C@@H]1c2ccccc2CCN1C(=O)[C@@H]1CCCC[C@@H]1C(=O)O)c1ccccc1`, under “at 50 µM (top of the series)”, the “activity change, negative = inhibition” value was “inactive”.
Turning to `O=C(O)c1ccccc1C(=O)NC[C@@H]1c2ccccc2CCN1C(=O)[C@@H]1CCCC[C@@H]1C(=O)O`, the “activity change, negative = inhibition” value (at 50 µM (top of the series)) is “inactive”.
With `NC(=O)[C@H]1CCCC[C@H]1C(=O)N1CCc2ccccc2[C@H]1CN1C(=O)c2ccccc2C1=O`, for the setting “at 50 µM (top of the series)”, the “activity change, negative = inhibition” value was “inactive”.
Turning to `Cc1cc(C)c(S(=O)(=O)Nc2nc(N(C)C)nc3ccccc23)c(C)c1`, the “activity change, negative = inhibition” value (at 50 µM (top of the series)) is “inactive”.
Take `COC(=O)CNc1nc(NS(=O)(=O)c2c(C)cc(C)cc2C)c2ccccc2n1`: the “activity change, negative = inhibition” value (at 50 µM (top of the series)) was “inactive”.
Turning to `O=C(O)C1CCCCC1C(=O)N1CCc2ccccc2C1CN1Cc2ccccc2C1=O` (stereo unspecified), the AC50 is 23.6 µM.
For `O=C(NCCCN1CCOCC1)c1ccccc1C(=O)NC[C@@H]1c2ccccc2CCN1C(=O)C1CCCCC1C(=O)O` (stereo partly specified), under “at 50 µM (top of the series)”, the “activity change, negative = inhibition” value was “inactive”.
On to `C[C@@H](NC(=O)C1CCCC[C@H]1C(=O)O)c1ccccc1` (mixture of isomers), for which the “activity change, negative = inhibition” value (at 50 µM (top of the series)) was “inactive”.
Take `O=C(O)[C@H]1CCCC[C@H]1C(=O)N1CCC2=C(CCCC2)C1CN1C(=O)c2ccccc2C1=O` (stereo partly specified): the AC50 is > 100 µM (inactive). Besides, the “activity change, negative = inhibition” value (at 50 µM (top of the series)) was “inactive”.
Taken in the same sequence, the figures for `Cc1ccc(S(=O)(=O)NC(=O)[C@@H]2c3ccccc3CCN2C(=O)[C@@H]2CCCC[C@@H]2C(=O)O)cc1` were > 100 µM (inactive) and “inactive”.
For the compound `O=C(O)C1CCCCC1C(=O)Nc1ccccc1CN1C(=O)c2ccccc2C1=O` (stereo unspecified), where the note is “at 50 µM (top of the series)”, the “activity change, negative = inhibition” value is “inactive”.
On the same count and under the same terms, for `O=C(O)[C@H]1CCCC[C@H]1C(=O)N1CCc2ccccc2C1` (racemic) the value was “inactive”; for `Cc1ccc(S(=O)(=O)NNc2nc(NCC(N)=O)nc3ccccc23)cc1`, “inactive”.
Regarding `CC(=O)Nc1cc(NS(=O)(=O)c2c(C)cc(C)cc2C)c2ccccc2c1O`, the AC50 was 9.18 µM.
With `CCOC(=O)Cc1nc(NS(=O)(=O)c2c(C)cc(C)cc2C)c2ccccc2n1`, under “at 50 µM (top of the series)”, the “activity change, negative = inhibition” value is “inactive”.
On the same count and under the same terms, then `Cc1ccc(S(=O)(=O)NC[C@@H]2c3ccccc3CCN2C(=O)[C@@H]2CCCC[C@@H]2C(=O)O)c(C)c1`, with “inactive”; and `O=C(O)CCCC(=O)N1CCc2ccccc2C1CN1C(=O)c2ccccc2C1=O` (stereo unspecified), with “inactive”.
Same read-out and setting: then `COc1ccc(CCN=C2C=C(NS(=O)(=O)c3c(C)cc(C)cc3C)c3ccccc3C2=O)cc1`, with “inactive”.
Take `NC(=O)c1ccccc1C(=O)NC[C@@H]1c2ccccc2CCN1C(=O)[C@@H]1CCCC[C@@H]1C(=O)O`: the AC50 was > 100 µM (inactive).
Still for that read-out and setting: for `O=C(O)C1CCCCC1C(=O)N1CCc2ccccc2C1CN1C(=O)Cc2ccccc2C1=O` (stereo unspecified) the value was > 100 µM (inactive).
For the compound `Cc1ccc(S(=O)(=O)NNc2nc(C(C(=O)OC(C)C)C(=O)C(F)(F)F)nc3ccccc23)cc1` (stereo unspecified), where the note is “at 50 µM (top of the series)”, the “activity change, negative = inhibition” value is “inactive”.
Same read-out and setting: then `O=C(O)/C=C\C(=O)N1CCc2ccccc2C1CN1C(=O)c2ccccc2C1=O` (stereo unspecified), with “inactive”; and `O=C(Oc1cc(CN2C(=O)c3ccccc3C2=O)c2ccccc2[n+]1[O-])c1cccc(Cl)c1`, with “inactive”.
For `O=C(NCCO)c1ccccc1C(=O)NC[C@@H]1c2ccccc2CCN1C(=O)C1CCCCC1C(=O)O` (stereo partly specified), the AC50 was > 100 µM (inactive).
For the compound `O=C(O)CCC(=O)N1CCc2ccccc2C1CN1C(=O)c2ccccc2C1=O` (stereo unspecified), the “activity change, negative = inhibition” value (at 50 µM (top of the series)) was “inactive”.
Regarding `Cc1ccc(S(=O)(=O)Nc2cc(C(C(=O)OC(C)C)C(=O)C(F)(F)F)c(O)c3ccccc23)c(C)c1` (stereo unspecified), the AC50 was 2.43 µM.
In the case of `Cc1ccc(S(=O)(=O)NC2=CC(=N[C@@H](C)C(=O)OC(C)(C)C)C(=O)c3ccccc32)c(C)c1`, the “activity change, negative = inhibition” value (at 50 µM (top of the series)) was “inactive”.
As for `Cc1ccc(S(=O)(=O)Nc2cc(C(C(=O)OC(C)C)C(=O)C(F)(F)F)c(O)c3ccccc23)cc1` (stereo unspecified), the AC50 is 7.4 µM.
For `Cc1cc(C)c(S(=O)(=O)Nc2cc(C(C(=O)OC(C)C)C(=O)C(F)(F)F)c(O)c3ccccc23)c(C)c1` (stereo unspecified), the AC50 was 0.798 µM.
The same measure, in the same setting: for `COC(=O)C(C(=O)OC)c1cc(NS(=O)(=O)c2c(C)cc(C)cc2C)c2ccccc2c1O` the value was 39.5 µM.
Same read-out and setting: then `O=C(NCCc1ccccc1)c1ccccc1C(=O)NC[C@@H]1c2ccccc2CCN1C(=O)C1CCCCC1C(=O)O` (stereo partly specified), with > 100 µM (inactive).
Take `Cc1cc(C)c(S(=O)(=O)Nc2nc(C(C(=O)OC(C)C)C(=O)C(F)(F)F)nc3ccccc23)c(C)c1` (stereo unspecified): the “activity change, negative = inhibition” value (at 50 µM (top of the series)) was “inactive”.

What is called AC50 is the concentration giving half of the maximal activity seen.
